# In patent publication US20140045823A1 (Neurocrine Biosciences, Inc., priority 2012, published 2014):
# Target: T1, human GPR119 (Homo sapiens, UniProt Q8TDV5)
# T1 construct: expression vector for human GPR119 cDNA (Acc. No. NP_848566); expressed in transfected cells; Min-6/hGPR119
# T1 sequence (Q8TDV5 1-335): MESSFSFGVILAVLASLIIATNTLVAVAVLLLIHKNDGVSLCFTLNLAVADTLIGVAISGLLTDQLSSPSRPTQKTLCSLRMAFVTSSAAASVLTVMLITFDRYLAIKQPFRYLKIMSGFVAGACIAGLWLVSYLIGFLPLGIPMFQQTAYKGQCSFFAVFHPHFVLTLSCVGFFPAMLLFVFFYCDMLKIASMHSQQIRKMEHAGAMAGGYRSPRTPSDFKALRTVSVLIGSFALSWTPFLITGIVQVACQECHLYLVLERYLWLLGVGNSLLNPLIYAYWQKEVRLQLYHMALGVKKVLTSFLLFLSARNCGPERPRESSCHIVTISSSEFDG
# Assay: AlphaScreen cAMP assay in MIN6 cells stably transfected with human GPR119
# Format: cell-based
# Settings: Min-6/hGPR119 cells, 45 min at room temperature
# Method in brief: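 cAMP accumulation quantified by AlphaScreen after 45 min compound stimulation at about 20 °C. Stimulation buffer: pH 7.4 HEPES saline with 0.5 mM IBMX, 0.1% BSA, 1% DMSO final. Cells: MIN6 stably transfected with human GPR119, 10000/well, cultured 24 h beforehand.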
row,SMILES,EC50 [nM]
1,"CC(C)(C)OC(=O)N1CCC(N(C(=O)c2cnc(-c3ccc(C(=O)N4CCC(C#N)C4)c(F)c3)nc2)C2CC2)CC1 (stereo not shown) [Example 163, 4-({2-[4-(3-Cyano-pyrrolidine-1-carbonyl)-3-fluoro-phenyl]-pyrimidine-5-carbonyl}-cyclopropyl-amino)-piperidine-1-carboxylic acid tert-butyl ester]",405
2,"COC1CCN(C(=O)c2ccc(-c3ncc(C(=O)N(C4CC4)C4CCN(C(=O)OC(C)(C)C)CC4)cn3)cc2F)CC1 [Example 164, 4-(Cyclopropyl-{2-[3-fluoro-4-(4-methoxy-piperidine-1-carbonyl)-phenyl]-pyrimidine-5-carbonyl}-amino)-piperidine-1-carboxylic acid tert-butyl ester]",221
3,"CN(Cc1cccnc1)C(=O)c1ccc(-c2ncc(C(=O)N(C3CC3)C3CCN(C(=O)OC(C)(C)C)CC3)cn2)c(F)c1 [Example 166, 4-(Cyclopropyl-{2-[2-fluoro-4-(methyl-pyridin-3-ylmethyl-carbamoyl)-phenyl]-pyrimidine-5-carbonyl}-amino)-piperidine-1-carboxylic acid tert-butyl ester]",359
4,"COCCNC(=O)c1ccc(-c2ncc(C(=O)N(C3CC3)C3CCN(C(=O)OC(C)(C)C)CC3)cn2)cc1F [Example 167, 4-(Cyclopropyl-{2-[3-fluoro-4-(2-methoxy-ethylcarbamoyl)-phenyl]-pyrimidine-5-carbonyl}-amino)-piperidine-1-carboxylic acid tert-butyl ester]",146
5,"CN(Cc1ccncc1)C(=O)c1ccc(-c2ncc(C(=O)N(C3CC3)C3CCN(C(=O)OC(C)(C)C)CC3)cn2)cc1 [Example 170, 4-(Cyclopropyl-{2-[4-(methyl-pyridin-4-ylmethyl-carbamoyl)-phenyl]-pyrimidine-5-carbonyl}-amino)-piperidine-1-carboxylic acid tert-butyl ester]",208
6,"CC(C)(C)OC(=O)N1CCC(N(C(=O)c2cnc(-c3ccc(C(=O)NC4CCC(O)CC4)cc3)nc2)C2CC2)CC1 (stereo not shown) [Example 171, 4-(Cyclopropyl-{2-[4-(4-hydroxy-cyclohexylcarbamoyl)-phenyl]-pyrimidine-5-carbonyl}-amino)-piperidine-1-carboxylic acid tert-butyl ester]",383
7,"COCC(C)N(C)C(=O)c1ccc(-c2ncc(C(=O)N(C3CC3)C3CCN(C(=O)OC(C)(C)C)CC3)cn2)cc1 (stereo not shown) [Example 172, 4-[Cyclopropyl-(2-{4-[(2-methoxy-1-methyl-ethyl)-methyl-carbamoyl]-phenyl}-pyrimidine-5-carbonyl)-amino]-piperidine-1-carboxylic acid tert-butyl ester]",226

# Further molecules by falling EC50, results first:
row,EC50 [nM],SMILES
1,501,"CC(C)(C)OC(=O)N1CCC(N(C(=O)c2cnc(-c3ccc(C(=O)NCc4cncnc4)c(F)c3)nc2)C2CC2)CC1 [Example 162, 4-[Cyclopropyl-(2-{3-fluoro-4-[(pyrimidin-5-ylmethyl)-carbamoyl]-phenyl}-pyrimidine-5-carbonyl)-amino]-piperidine-1-carboxylic acid tert-butyl ester]"
2,179,"CC(C)(C)OC(=O)N1CCC(N(C(=O)c2cnc(-c3ccc(C(=O)NCCn4ccc(C5CC5)n4)c(F)c3)nc2)C2CC2)CC1 [Example 169, 4-[Cyclopropyl-(2-{4-[2-(3-cyclopropyl-pyrazol-1-yl)-ethylcarbamoyl]-3-fluoro-phenyl}-pyrimidine-5-carbonyl)-amino]-piperidine-1-carboxylic acid tert-butyl ester]"
3,173,"CC(C)(C)OC(=O)N1CCC(N(C(=O)c2cnc(-c3ccc(C(=O)NCc4cccnc4)c(F)c3)nc2)C2CC2)CC1 [Example 165, 4-[Cyclopropyl-(2-{3-fluoro-4-[(pyridin-3-ylmethyl)-carbamoyl]-phenyl}-pyrimidine-5-carbonyl)-amino]-piperidine-1-carboxylic acid tert-butyl ester]"
